Reference: patent US9902740B2, “Macrocyclic benzodiazepine dimers, conjugates thereof, preparation and uses” (BRISTOL-MYERS SQUIBB COMPANY, priority 2015, dated 2018)
Like-named read-outs stand apart in the source and are kept apart here.

How the values were obtained:
Type in all cases: cell-based
[1] = test system: H226 human lung cancer cell line; assay: Cytotoxic activity of dimers against H226 cells; conditions: for EC50: Table 5 comparative activities, H226
Source text: (§1) H226 is a human lung cancer cell line. N87 is a human gastric cancer cell line. OVCAR3 is a human ovarian cancer cell line. HCT116 is a human colon cancer cell line. HCT116/VM46 is a human colon cancer cell line that is multi-drug and paclitaxel resistant.

[2] = test system: N87 human gastric cancer cell line; assay: Cytotoxic activity of dimers against N87 cells; conditions: for EC50: Table 5 comparative activities, N87; for IC50: read-out: Cell Line (IC50, nM) N87
Source text: as §1

[3] = test system: OVCAR3 human ovarian cancer cell line; assay: Cytotoxic activity of dimers against OVCAR3 cells; conditions: for EC50: Table 5 comparative activities, OVCAR3
Source text: as §1

[4] = test system: HCT116/VM46 human colon cancer cell line (multi-drug and paclitaxel resistant); assay: Cytotoxic activity of dimers against HCT116/VM46 cells
Source text: as §1

[5] = test system: HCT116 human colon cancer cell line; assay: Cytotoxic activity of dimers against HCT116 cells
Source text: as §1

[6] = Table 4, H226 human lung cancer cell line, read-out: Cell Line (IC50, nM) H226
[7] = Table 4, N87 human gastric cancer cell line
[8] = Table 4, OVCAR3 human ovarian cancer cell line, read-out: Cell Line (IC50, nM) OVCAR3
[9] = Homo sapiens, NCI-H226, read-out: Cell Line (IC50, nM) H226
[10] = Homo sapiens, OVCAR-3, read-out: Cell Line (IC50, nM) OVCAR3
[11] = Homo sapiens, HCT-116/VM46, Table 4

| Structure (SMILES) | IC50 [1, 6] | IC50 [2, 7] | IC50 [3, 8] | IC50 ([4]; Table 4) | IC50 ([5]; Table 4) | also measured |
| --- | --- | --- | --- | --- | --- | --- |
| COc1cc2c(cc1OCCCOc1cc3c(cc1OC)C(=O)N1CCC[C@H]1C=N3)N=C[C@@H]1CCCN1C2=O [Dimer A-4, reference compound] | – | – | – | – | – | EC50 ([1]; Homo sapiens, NCI-H226): 70 nM; EC50 ([2]; Homo sapiens): 63 nM; EC50 ([3]; Homo sapiens, OVCAR-3): 56 nM |
| O=C1c2cc3c(cc2N=C[C@@H]2CCCN12)OCCCOc1cc2c(cc1OCCCCCCCO3)C(=O)N1CCC[C@H]1C=N2 [IIa-1] | 8.1 nM | 4.6 nM | 3.4 nM | 74 nM | – | EC50 [1]: 8.1 nM; EC50 [2]: 4.6 nM; EC50 [3]: 3.4 nM |
| O=C1c2cc3c(cc2N=C[C@@H]2CCCN12)OCCCOc1cc2c(cc1OCCCCCCCCO3)C(=O)N1CCC[C@H]1C=N2 [IIa-2] | 1.6 nM | 2.7 nM | 1.2 nM | – | – | EC50 [1]: 1.6 nM; EC50 [2]: 2.7 nM; EC50 [3]: 1.2 nM |
| O=C1c2cc3c(cc2N=C[C@@H]2CCCN12)OCCCOc1cc2c(cc1OCCCCCCCCCO3)C(=O)N1CCC[C@H]1C=N2 [IIa-3] | 8.7 nM | 8.3 nM | 7.3 nM | – | – | EC50 [1]: 8.7 nM; EC50 [2]: 8.3 nM; EC50 [3]: 7.3 nM |
| O=C1c2cc3c(cc2N=C[C@@H]2CCCN12)OCCCOc1cc2c(cc1OCCCCCCCCCCO3)C(=O)N1CCC[C@H]1C=N2 [IIa-4] | 12 nM | 22 nM | 20 nM | – | – | EC50 [1]: 12 nM; EC50 [2]: 22 nM; EC50 [3]: 20 nM |
| O=C1c2cc3c(cc2N=C[C@@H]2CCCN12)OCCCOc1cc2c(cc1OCCCCCCCCCCCO3)C(=O)N1CCC[C@H]1C=N2 [IIa-5] | 69 nM | 150 nM | 78 nM | – | – | EC50 [1]: 69 nM; EC50 [2]: 150 nM; EC50 [3]: 78 nM |
| O=C1c2cc3c(cc2N=C[C@@H]2CCCN12)OCCCOc1cc2c(cc1OCCCCCCCCCCCCO3)C(=O)N1CCC[C@H]1C=N2 [IIa-6] | 110 nM | 310 nM | 140 nM | – | – | EC50 [1]: 110 nM; EC50 [2]: 310 nM; EC50 [3]: 140 nM |
| O=C1c2cc3c(cc2N=C[C@@H]2CCCN12)OCCCCCOc1cc2c(cc1OCCCCCCCCCCCO3)C(=O)N1CCC[C@H]1C=N2 [IIa-7] | 12 nM | 87 nM | 14 nM | – | – | EC50 [1]: 12 nM; EC50 [2]: 87 nM; EC50 [3]: 14 nM |
| O=C1c2cc3c(cc2N=C[C@@H]2CCCN12)OCCCCCOc1cc2c(cc1OCCCCCCCCCCCCO3)C(=O)N1CCC[C@H]1C=N2 [IIa-8] | 10 nM | 15 nM | 9.9 nM | – | – | EC50 [1]: 10 nM; EC50 [2]: 15 nM; EC50 [3]: 9.9 nM |
| O=C1c2cc3c(cc2N=C[C@@H]2CCCN12)OCCCOc1cc2c(cc1OCCCC/C=C/CCCCO3)C(=O)N1CCC[C@H]1C=N2 [IIa-9] | 12 nM | 13 nM | 12 nM | – | – | EC50 [1]: 12 nM; EC50 [2]: 13 nM; EC50 [3]: 12 nM |
| C=C1C[C@H]2C=Nc3cc4c(cc3C(=O)N2C1)OCCCC/C=C/CCCCOc1cc2c(cc1OCCCO4)N=C[C@@H]1CC(=C)CN1C2=O [IIa-10] | 2 nM | 2.3 nM | 0.47 nM | 11 nM | – | – |
| C=C1C[C@H]2C=Nc3cc4c(cc3C(=O)N2C1)OCCCCCCCCOc1cc2c(cc1OCCCO4)N=C[C@@H]1CC(=C)CN1C2=O [IIa-12] | 0.32 nM | 0.89 nM | 0.52 nM | 4.8 nM | – | – |
| C=C1C[C@H]2C=Nc3cc4c(cc3C(=O)N2C1)OCCOCCOCCOc1cc2c(cc1OCCCO4)N=C[C@@H]1CC(=C)CN1C2=O [IIa-13] | 29 nM | 40 nM | 20 nM | 85 nM | 32 nM | – |
| C=C1C[C@H]2C=Nc3cc4c(cc3C(=O)N2C1)OCCCCNCCCCOc1cc2c(cc1OCCCO4)N=C[C@@H]1CC(=C)CN1C2=O [IIa-14] | 21 nM | 23 nM | 50 nM | 170 nM | 38 nM | – |
| O=C1c2cc3c(cc2N=C[C@@H]2Cc4ccccc4CN12)OCCCOc1cc2c(cc1OCCCCCCCCO3)C(=O)N1Cc3ccccc3C[C@H]1C=N2 [IIb-1] | 0.22 nM | 0.53 nM | 0.33 nM | 1.3 nM | – | – |
| O=C1c2cc3c(cc2N=C[C@@H]2Cc4ccccc4CN12)OCCCOc1cc2c(cc1OCCCCCCCCCCO3)C(=O)N1Cc3ccccc3C[C@H]1C=N2 [IIb-2] | 3 nM | 2.5 nM | 1.3 nM | 17 nM | – | – |

| Structure (SMILES) | IC50 [1, 6] | IC50 [2, 7] | IC50 [3, 8] | IC50 ([4]; Table 4) | IC50 ([5]; Table 4) | also measured |
| --- | --- | --- | --- | --- | --- | --- |
| O=C1c2cc3c(cc2N=C[C@@H]2Cc4ccccc4N12)OCCCOc1cc2c(cc1OCCCCCCCCCCO3)C(=O)N1c3ccccc3C[C@H]1C=N2 [IIb-3] | 5.9 nM | 11 nM | 3.5 nM | 13 nM | – | – |
| O=C1c2cc3c(cc2N=C[C@@H]2Cc4ccccc4CN12)OCCCOc1cc2c(cc1OCCOCCOCCO3)C(=O)N1Cc3ccccc3C[C@H]1C=N2 [IIb-4] | 0.15 nM | 0.14 nM | 0.2 nM | 2 nM | 0.068 nM | – |
| O=C1c2cc3c(cc2N=C[C@@H]2Cc4ccccc4CN12)OCCCOc1cc2c(cc1OCCCCNCCCCO3)C(=O)N1Cc3ccccc3C[C@H]1C=N2 [IIb-5] | 0.45 nM | 0.35 nM | 0.6 nM | 7.3 nM | 0.077 nM | – |
| Nc1ccc2c(c1)CN1C(=O)c3cc4c(cc3N=C[C@@H]1C2)OCCCOc1cc2c(cc1OCCCCCCCCO4)C(=O)N1Cc3ccccc3C[C@H]1C=N2 [IIb-6] | – | – | – | – | – | IC50 [1, 9]: 0.21 nM; IC50 ([2]; Homo sapiens): 0.25 nM; IC50 [3, 10]: 0.21 nM; IC50 ([5]; HCT-116, Table 4): 0.016 nM; IC50 [4, 11]: 0.66 nM |
| Nc1ccc(CN2CCCCOc3cc4c(cc3OCCCOc3cc5c(cc3OCCCC2)C(=O)N2Cc3ccccc3C[C@H]2C=N5)N=C[C@@H]2Cc3ccccc3CN2C4=O)cc1 [IIb-8] | 0.13 nM | 0.27 nM | 0.25 nM | 1.2 nM | 0.015 nM | – |
| O=C1c2cc3c(cc2N=C[C@@H]2CC(c4ccccc4)=CN12)OCCCOc1cc2c(cc1OCCCCCCCCCCO3)C(=O)N1C=C(c3ccccc3)C[C@H]1C=N2 [IIc-1] | 12 nM | 12 nM | 7.6 nM | 30 nM | – | – |
| COc1ccc(C2=CN3C(=O)c4cc5c(cc4N=C[C@@H]3C2)OCCCOc2cc3c(cc2OCCCCCCCCCCCCO5)C(=O)N2C=C(c4ccc(OC)cc4)C[C@H]2C=N3)cc1 [IIc-2] | 220 nM | 230 nM | > 250 nM | > 250 nM | 48 nM | – |
| COCCOc1ccc(C2=CN3C(=O)c4cc5c(cc4N=C[C@@H]3C2)OCCCOc2cc3c(cc2OCCCCCCCCCCCCO5)C(=O)N2C=C(c4ccc(OCCOC)cc4)C[C@H]2C=N3)cc1 [IIc-3] | 32 nM | 29 nM | 104 nM | 58 nM | 13 nM | – |
| O=C1c2cc3c(cc2N=C[C@@H]2CC(c4ccccc4)=CN12)OCCCOc1cc2c(cc1OCCOCCOCCO3)C(=O)N1C=C(c3ccccc3)C[C@H]1C=N2 [IIc-6] | 1.1 nM | 1.5 nM | 1.7 nM | 6.4 nM | 0.13 nM | – |
| COc1ccc(C2=CN3C(=O)c4cc5c(cc4N=C[C@@H]3C2)OCCCOc2cc3c(cc2OCCCCCCCCO5)C(=O)N2C=C(c4ccc(OC)cc4)C[C@H]2C=N3)cc1 [IIc-7] | 0.99 nM | 0.62 nM | 1.8 nM | 1.1 nM | 0.17 nM | – |
| CN1CCN(c2ccc(C3=CN4C(=O)c5cc6c(cc5N=C[C@@H]4C3)OCCCOc3cc4c(cc3OCCCCCCCCO6)C(=O)N3C=C(c5ccc(N6CCN(C)CC6)cc5)C[C@H]3C=N4)cc2)CC1 [IIc-8] | 0.047 nM | 0.034 nM | 0.35 nM | 0.076 nM | 0.006 nM | – |
| CN1CCN(c2ccc(C3=CN4C(=O)c5cc6c(cc5N=C[C@@H]4C3)OCCCOc3cc4c(cc3OCCCCCCCCO6)C(=O)N3C=C(c5ccc(N6CCNCC6)cc5)C[C@H]3C=N4)cc2)CC1 [IIc-9] | – | – | – | – | – | IC50 [1, 9]: 0.33 nM; IC50 ([2]; Homo sapiens): 0.68 nM; IC50 [3, 10]: 1 nM; IC50 ([5]; HCT-116, Table 4): 0.063 nM; IC50 [4, 11]: 0.16 nM |
| CN1CCN(c2ccc(C3=CN4C(=O)c5cc6c(cc5N=C[C@@H]4C3)OCCCOc3cc4c(cc3OCCCCCCCCO6)C(=O)N3C=C(c5ccc(N)cc5)C[C@H]3C=N4)cc2)CC1 [IIc-10] | 0.044 nM | 0.36 nM | 0.36 nM | 0.071 nM | 0.022 nM | – |
| COc1ccc(C2=CN3C(=O)c4cc5c(cc4N=C[C@@H]3C2)OCCCOc2cc3c(cc2OCCCCCCCCO5)C(=O)N2C=C(c4ccc(N)cc4)C[C@H]2C=N3)cc1 [IIc-11] | – | – | – | – | – | IC50 [1, 9]: 0.36 nM; IC50 ([2]; Homo sapiens): 0.56 nM; IC50 [3, 10]: 0.31 nM; IC50 ([5]; HCT-116, Table 4): 0.063 nM; IC50 [4, 11]: 0.36 nM |
| CC1=CN2C(=O)c3cc4c(cc3N=C[C@@H]2C1)OCCCOc1cc2c(cc1OCCCCCCCCO4)C(=O)N1C=C(c3ccc(N)cc3)C[C@H]1C=N2 [IId-1] | – | – | – | – | – | IC50 [1, 9]: 0.66 nM; IC50 ([2]; Homo sapiens): 1.4 nM; IC50 [3, 10]: 1.2 nM; IC50 ([5]; HCT-116, Table 4): 0.14 nM; IC50 [4, 11]: 1.2 nM |
| C=C1C[C@H]2C=Nc3cc4c(cc3C(=O)N2C1)OCCCCCCCCOc1cc2c(cc1OCCCO4)N=C[C@@H]1Cc3ccc(N)cc3CN1C2=O [IId-2] | 0.56 nM | 1.1 nM | 0.71 nM | 2.8 nM | 0.11 nM | – |
